Results on 6 molecules are retold here after PMC8160210, “Single tryptophan Y160W mutant of homooligomeric E. coli purine nucleoside phosphorylase implies that dimers forming the hexamer are functionally not equivalent” (Scientific Reports, 2021).

For series [1], the target named is T1, WT E. coli PNP (Escherichia coli, UniProt P0ABP8).
T1 construct: made in house
T1 sequence (P0ABP8 2-239 limits assumed): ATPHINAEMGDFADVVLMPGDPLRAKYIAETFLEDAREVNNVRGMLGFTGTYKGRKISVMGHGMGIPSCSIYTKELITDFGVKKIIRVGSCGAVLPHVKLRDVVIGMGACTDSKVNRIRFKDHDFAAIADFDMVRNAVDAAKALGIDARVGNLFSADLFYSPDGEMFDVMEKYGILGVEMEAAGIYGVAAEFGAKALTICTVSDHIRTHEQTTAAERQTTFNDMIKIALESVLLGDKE
The series can be described thus: Enzymatic specific activity, spectrophotometric assay. Conditions: WT PNP (reference = 100); pH 7.0, 50 mM Hepes, 25 °C, 50 mM phosphate. It counts as biochemical. As to the method:
(§1) All activity measurements and kinetic studies were done in 50 mM Hepes/HCl buffer pH 7.0 at 25 °C as previously described for the WT E. coli PNP and its active-site mutants, using direct spectrophotometric assay for adenosine, guanosine and 7-methylguanosine as substrates, and a coupled assay with xanthine oxidase in the case of inosine[13],[28],[29]. Activity measurements were performed for each protein sample, before and after each experiment as a control of the state of the protein.

The target of series [2] is T1, WT E. coli PNP. On the set-up: method as in PMID 21672603. Conditions: pH 7.0, 50 mM Hepes, 25 °C, 50 mM phosphate; cited from earlier work.
For series [3], the target named is T2, Y160W PNP mutant (Escherichia coli, UniProt P0ABP8, Y161W). As to the kind of experiment: Enzymatic specific activity, spectrophotometric assay. Conditions: pH 7.0, 50 mM Hepes, 25 °C, 50 mM phosphate; for Enzymatic specific activity relative to WT: Y160W vs WT; for Enzymatic specific activity: Y160W. It counts as biochemical, E. coli. Set-up: made in house; host or cells: E. coli DH5α-T1. As to the method: as §1
T2 sequence (P0ABP8 2-239 Y161W): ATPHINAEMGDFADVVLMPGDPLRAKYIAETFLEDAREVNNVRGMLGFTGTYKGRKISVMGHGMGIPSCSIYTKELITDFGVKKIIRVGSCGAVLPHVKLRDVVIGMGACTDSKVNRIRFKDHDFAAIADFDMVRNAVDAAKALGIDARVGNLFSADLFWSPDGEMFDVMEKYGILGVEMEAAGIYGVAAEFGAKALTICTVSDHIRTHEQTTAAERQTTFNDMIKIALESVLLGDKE

In series [4] the target is T1, WT E. coli PNP. As to the kind of experiment: Kinetic studies with variable substrate. It counts as biochemical. Conditions: nucleoside as variable substrate, 50 mM phosphate, Michaelis–Menten, pH 7.0, 25 °C. As to the method:
as §1
(§2) The classical Michaelis–Menten equation was fitted to the kinetic curves (i.e. initial rate of the reaction, v0, vs. initial substrate concentration, c0):1 v0c0=Vmax1c0/c0+KM1
(§3) Coefficients a and b express the degree of cooperation between the subunits in a dimer, while constants KM1 and Vmax1 characterize the active sites of the enzyme when the neighbouring site is free.
(§4) A more complex model was used if there was a statistically significant decrease in the residual sum of squares as judged by the F test at 95% confidence level.

Series [5] addresses T2, Y160W PNP mutant. Conditions: nucleoside as variable substrate, 50 mM phosphate, Michaelis–Menten, pH 7.0, 25 °C. The method, then: Activity measurements were performed for each protein sample, before and after each experiment as a control of the state of the protein.
as §2, §3, §4

Series [6] deals with T1, WT E. coli PNP. Set-up: method as in PMID 30337572. Conditions: m^7Guo as variable substrate, 50 mM phosphate, Michaelis–Menten; cited from earlier work.
The test system of series [7] is Nc1nc2c(ncn2[C@@H]2O[C@H](CO)[C@@H](O)[C@H]2O)c(=O)[nH]1. The series can be described thus: purified protein, by the assay type. Conditions: other: Y160W, nucleoside as variable substrate, 50 mM phosphate, Michaelis–Menten, pH 7.0, 25 °C.
Substrate in series [8]: Nc1nc2c(ncn2[C@@H]2O[C@H](CO)[C@@H](O)[C@H]2O)c(=O)[nH]1
The series can be described thus: Kinetic studies with variable substrate. Conditions: other: WT, nucleoside as variable substrate, 50 mM phosphate, Michaelis–Menten, pH 7.0, 25 °C. It counts as biochemical, E. coli. The method, then:
as §1, §2, §3, §4

Regarding `Nc1ncnc2c1ncn2[C@@H]1O[C@H](CO)[C@@H](O)[C@H]1O` [Ado, Adenosine], the figures for the “Enzymatic specific activity relative to WT” value at WT E. coli PNP [1] and at Y160W PNP mutant [3] were 100% and 112%, respectively. Also, the Enzymatic specific activity is 58.5 ± 5.9 U/mg at WT E. coli PNP [2] and 65.6 ± 14.2 U/mg on Y160W PNP mutant [3].
In the case of `Nc1nc2c(ncn2[C@@H]2O[C@H](CO)[C@@H](O)[C@H]2O)c(=O)[nH]1` [Guo, Guanosine], the “Enzymatic specific activity relative to WT” value on WT E. coli PNP [1] is listed as 100%; at Y160W PNP mutant [3] it was 60%. Also, the Enzymatic specific activity was 60.4 ± 6.7 U/mg on WT E. coli PNP [2] and 36.2 ± 2.0 U/mg at Y160W PNP mutant [3].
On to `O=c1[nH]cnc2c1ncn2[C@@H]1O[C@H](CO)[C@@H](O)[C@H]1O` [Ino, Inosine], for which the entries for the “Enzymatic specific activity relative to WT” value on WT E. coli PNP [1] and at Y160W PNP mutant [3] were 100% and 88%, respectively. The Enzymatic specific activity at WT E. coli PNP [2] is given as 103.2 ± 4.0 U/mg; on Y160W PNP mutant [3], 91.1 ± 8.9 U/mg.
`C[n+]1cn([C@@H]2O[C@H](CO)[C@@H](O)[C@H]2O)c2nc(N)[nH]c(=O)c21` [m^7Guo, 7-Methylguanosine]: the “Enzymatic specific activity relative to WT” value at WT E. coli PNP [1] is reported as 100%; on Y160W PNP mutant [3] it was 108%. In addition, the Vmax is listed as 22.7 ± 0.3 U/mg on WT E. coli PNP [4] and 21 ± 1 U/mg on Y160W PNP mutant [5]. For the same molecule, the figures for the Michaelis constant (Km) on Y160W PNP mutant [5] and at WT E. coli PNP [6] were 71.3 ± 3 µM and 27.2 µM, respectively. The figures for the Enzymatic specific activity on WT E. coli PNP [2] and on Y160W PNP mutant [3] were 21.4 ± 1.6 U/mg and 23.2 ± 1.2 U/mg, respectively.
Regarding “Y160W PNP mutant (Escherichia coli K-12; Y161W)”, in series [7], the Km was determined as 128 ± 2 µM and the Vmax was 42.8 ± 0.3 U/mg.

B1: WT E. coli PNP (Escherichia coli K-12) (protein)
chain: T1 sequence (P0ABP8 2-239 limits assumed)
notes: made in house
B1: in series [8], the Km worked out at 28 ± 4 µM and the Vmax was found to be 51.1 ± 2.3 U/mg.

The term Km denotes the concentration of substrate that gives half-maximal velocity.
